According to EPA's ToxValDB 9.5 (doi:10.2903/j.efsa.2009.204r):
Values after ≈ are worked out from the molar mass of the structure shown.

How the values were obtained:
Oncorhynchus mykiss = conditions: chronic/long-term; duration: 28 days; growth
Anas platyrhynchos = conditions: short-term; oral; feed; mortality
Mus musculus = conditions: oral
Cyprinus carpio = conditions: acute; duration: 96 hours; mortality
Folsomia candida = conditions: chronic/long-term; duration: 28 days
Apis mellifera = conditions: acute; duration: 48 hours; oral; unspecified; mortality
Daphnia magna = conditions: chronic/long-term; duration: 21 days; reproduction
Typhlodromus pyri = test: LR50; higher = less toxic; conditions: acute; duration: 7 days; mortality

With `CC(C)=NOCCOC(=O)[C@@H](C)Oc1ccc(Oc2cnc3cc(Cl)ccc3n2)cc1` [Propaquizafop] the NOEC (Oncorhynchus mykiss) was 0.019 mg/L, the LC50 (Anas platyrhynchos) was greater than 827 mg/kg-day and the LC50 (Tagia sp.; acute, mortality) was greater than 1000 mg/kg. For the same molecule, the NOEC (Tagia sp.; chronic/long-term, duration: 56 days) was 3.9 mg/kg, the LD50 (Mus musculus; acute, mortality) was 3010 mg/kg and the NOAEL (Mus musculus; chronic, duration: 18 months, clinical chemistry) was 1.5 mg/kg-day. The NOAEL (Rattus norvegicus; reproduction developmental, reproduction) was 15 mg/kg-day, the NOAEL (Rattus norvegicus; subchronic, duration: 90 days, oral) was 6.25 mg/kg-day and the LC50 (Cyprinus carpio) was 0.19 µg/mL (≈ 0.428 µM). It also gave an NOEC (Folsomia candida) of 5.4 mg/kg, an LD50 (Apis mellifera) greater than 20 µg/piece and an LD50 (Colinus virginianus; acute, oral, mortality) greater than 2000 mg/kg. It also gave an NOEC (Colinus virginianus; reproduction developmental) of no less than 20.2 mg/kg-day, an NOEC (Daphnia magna) of 0.44 mg/L and an LR50 (Typhlodromus pyri) greater than 1.4 g/ha.
